Experimental data reported in US12357598B2, “Treatment of neurodevelopmental disorders” (THE REGENTS OF THE UNIVERSITY OF CALIFORNIA, priority 2018, dated 2025).

Assays:
Assay type in all cases: in vivo, mouse
parvalbumin (PV) [1] = experiment: PV immunohistochemistry in mPFC, offspring after MIA; settings: adult offspring of poly(I:C)-treated mice vs saline-treated group
Experimental: Immunohistochemistry. Immunohistochemistry of PV was performed as reported previously (37,39,59,60). Mice were anesthetized with 5% isoflurane and sodium pentobarbital (50 mg/kg), and perfused transcardially with 10 mL of physiological saline, followed by 40 mL of ice-cold 4% paraformaldehyde in 0.1M phosphate buffer (pH 7.4). Brains were removed from the skulls and post fixed overnight at 4° C. in the same fixative. For the immunohistochemical analysis, 50 μm-thick serial, coronal sections of brain tissue were cut in ice-cold 0.01M phosphate buffered saline (pH 7.5) using a vibrating blade microtome (VT1000s, Leica Microsystems, Tokyo, Japan). Free-floating sections were treated with 0.3% H2O2 in 50 mM Tris-HCl saline (TBS) for 30 min and were blocked in TBS containing 0.2% Triton X-100 (TBST) and 1.5% normal serum for 1 h at room temperature. […] The sections were imaged, and the staining intensity of PV (or GADO immunoreactivity in the inflalimbic (IL) and prelimbic (PrL) regions of mPFC was analyzed using a light micro-scope equipped with a CCD camera (Olympus IX70, Tokyo, Japan) and the SCION IMAGE software package. Images of sections within mPFC region were captured using a 100× objective with a Keyence BZ-X710 microscope (Keyence Corporation, Osaka, Japan).

ddY mice = experiment: Locomotion, offspring after maternal glyphosate exposure; settings: juvenile offspring, maternal 0.095% glyphosate vs water
Experimental: Locomotor Activity: Both horizontal and rearing activity were monitored by an infrared ray passive sensor system (SCANET-SV10, Melquest Ltd., Toyama, Japan), and activity was integrated every minute. Individual mice were placed in activity chambers and allowed 1 hour of free exploration as spontaneous activity.

parvalbumin (PV) [2] = experiment: PV-immunohistochemistry in mPFC after maternal glyphosate exposure; settings: juvenile offspring of maternal glyphosate exposure vs water treated group
Experimental: PV-immunohistochemistry. Immunohistochemistry of PV was performed as reported previously (7,13,16,17). Mice were anesthetized with 5% isoflurane and sodium pentobarbital (50 mg/kg), and perfused transcardially with 10 mL of saline, followed by 30 mL of ice-cold 4% paraformaldehyde in 0.1M phosphate buffer (pH 7.4). Brains were removed from the skulls and post fixed overnight at 4° C. in the same fixative. For the immunohistochemical analysis, 50 μm-thick serial, coronal sections of brain tissue were cut in ice-cold 0.01M phosphate buffered saline (pH 7.4) using a vibrating blade microtome (VT1000s, Leica Microsystems, Tokyo, Japan). Mounted on gelatinized slides brain sections were washed by PBS for three times and then blocked in PBS containing 0.3% Triton X-100 (PBST) and 3% normal serum for 1 h at room temperature. The samples were then incubated for 24 h at 4° C. with […] polyclonal anti-parvalbumin (PV) antibody (1:100, abcam, ab11427) in PBST with 1% normal serum. After that the sections were washed three times in PBS and then incubated for 2 h in room temperature with Alexa Fluor 488 Polyclonal Antibody (1:1000, Invitrogen, A11094). […] The PV-immunofluorescent-positive cells in the inflalimbic (IL) and prelimbic (PrL) regions (0.05 mm^2) of mPFC was analyzed using a fluorescence microscope with a CCD camera (Olympus IX70, Tokyo, Japan) and the SCION IMAGE software package. […]

Molecule	PV-IR in the PrL of mPFC (parvalbumin (PV) [1])	locomotion (ddY mice)	PV-immunoreactivity in the prelimbic (PrL) of medial PFC (parvalbumin (PV) [2])
polyriboinosinic-polyribocytidilic acid [Poly(I:C)]	significantly lower	–	–
O=C(O)CNCP(=O)(O)O [glyphosate]	–	not different	significantly lower
